The results in this text go back to patent EP4745134A1 (Jiangsu Yahong Meditech Co., Ltd., priority 2023, dated 2025).

A value given as a limit tells only on which side of the number the result lay.

What is called IC50 is the concentration at which inhibition is half-maximal.

The target in one experiment is PRMT5-MTA (Homo sapiens, UniProt O14744). Description: Enzymatic inhibitory activity against PRMT5-MTA (AlphaScreen). The class given is biochemical. To be noted: read-out: IC50. Summed up: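 PRMT5/[…] (1 nM) was preincubated for 30 min at room temperature with 1 µM […] and 2.5 µM SAM, then exposed to compound (10-point, 3-fold from 1000 nM) for 15 min at 23 °C. Histone H4 substrate (5 nM) was added and reacted for 45 min at 23 °C. Symmetric dimethyl-R3 H4 was detected by AlphaScreen and IC50 calculated.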

In another experiment the test system is HCT116 MTAP KO cells. Description: Inhibitory activity against cell proliferation (CellTiter Glo, 6 days), HCT116 MTAP KO. It is filed as cell-based. To be noted: for IC50: Homo sapiens, HCT-116, 144 h, HCT116 MTAP KO cells, 6 days, CellTiter Glo, read-out: HCT116 MTAP KO IC50; for Selectivity HCT 116-WT/ HCT116 MTAP KO: ratio of IC50 HCT116-WT / HCT116 MTAP KO. Summed up: (§1)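 Cells were seeded at 250 per well in McCoy's 5A with 10% FBS and left overnight at 37°C, 5% CO2. Compounds were added as 8-point, 4-fold dilutions from 10000 nM, with DMSO-only controls, for 6 days. IC50 values came from CellTiter Glo luminescence.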

A further experiment relates to HCT116-WT cells. Nature of the experiment: Inhibitory activity against cell proliferation (CellTiter Glo, 6 days), HCT116-WT. It is filed as cell-based. To be noted: 144 h, HCT116-WT cells, 6 days, CellTiter Glo; read-out: HCT116-WT IC50. A digest of the protocol: as §1
(In general: In ATP-based viability assays light output follows the ATP content of the culture.)

Chain of PRMT5-MTA (O14744 whole entry): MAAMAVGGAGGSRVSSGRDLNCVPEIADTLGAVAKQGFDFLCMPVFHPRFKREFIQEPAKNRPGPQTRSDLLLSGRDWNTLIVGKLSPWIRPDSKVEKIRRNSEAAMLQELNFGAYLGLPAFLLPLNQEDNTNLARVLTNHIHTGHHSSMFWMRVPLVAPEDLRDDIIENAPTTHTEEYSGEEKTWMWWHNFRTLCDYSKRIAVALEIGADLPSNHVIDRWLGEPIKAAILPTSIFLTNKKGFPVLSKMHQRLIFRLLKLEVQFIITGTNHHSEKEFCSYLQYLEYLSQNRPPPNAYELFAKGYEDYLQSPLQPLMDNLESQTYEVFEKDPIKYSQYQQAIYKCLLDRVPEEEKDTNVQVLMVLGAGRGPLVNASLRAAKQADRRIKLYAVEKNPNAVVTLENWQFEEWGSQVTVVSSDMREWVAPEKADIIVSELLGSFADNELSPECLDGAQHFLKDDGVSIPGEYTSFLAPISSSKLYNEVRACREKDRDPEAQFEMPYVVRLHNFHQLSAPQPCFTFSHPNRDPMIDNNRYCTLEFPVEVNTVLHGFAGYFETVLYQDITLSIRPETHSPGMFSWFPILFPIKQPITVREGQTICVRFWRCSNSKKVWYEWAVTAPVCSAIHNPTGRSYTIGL
Chain of PRMT5-MTA (Q9BQA1 whole entry partner): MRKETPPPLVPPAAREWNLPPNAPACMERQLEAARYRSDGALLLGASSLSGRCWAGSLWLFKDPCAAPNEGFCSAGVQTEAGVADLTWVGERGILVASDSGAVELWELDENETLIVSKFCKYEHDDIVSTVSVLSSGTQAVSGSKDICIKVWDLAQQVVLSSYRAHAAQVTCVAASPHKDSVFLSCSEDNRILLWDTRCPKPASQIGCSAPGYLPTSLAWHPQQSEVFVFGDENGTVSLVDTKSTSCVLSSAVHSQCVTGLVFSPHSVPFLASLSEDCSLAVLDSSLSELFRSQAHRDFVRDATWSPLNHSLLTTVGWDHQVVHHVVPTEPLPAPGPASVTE

In the case of `Cc1cc2nc(N)c3cnn(C)c3c2cc1C(=O)N1CC(C)CN1c1c(F)cccc1F` (stereo not shown) [Example 400, (4-amino-1,7-dimethyl-1H-pyrazolo[4,3-c]quinolin-8-yl)(2-(2,6-difluorophenyl)-4-methylpyrazolidin-1-yl)methanone], the half-maximal inhibitory concentration (IC50) amounted to 5.8 nM at PRMT5-MTA, 33 nM in the experiment with HCT116 MTAP KO cells and 1870 nM in the experiment with HCT116-WT cells. Also, the “Selectivity HCT 116-WT/ HCT116 MTAP KO” value in the experiment on HCT116 MTAP KO cells is reported as 56.79.
Regarding `Cc1cc2nc(N)c3cnn(C)c3c2cc1C(=O)N1CC(C)CN1c1cccc(Cl)c1F` (stereo not shown) [Example 383, (4-amino-1,7-dimethyl-1H-pyrazolo[4,3-c]quinolin-8-yl)(2-(3-chloro-2-fluorophenyl)-4-methylpyrazolidin-1-yl)methanone], the figures for the IC50 at PRMT5-MTA, with HCT116 MTAP KO cells and in the experiment on HCT116-WT cells were 6 nM, 50 nM and 1770 nM, respectively. In the experiment with HCT116 MTAP KO cells, the “Selectivity HCT 116-WT/ HCT116 MTAP KO” value amounted to 35.34.
For the compound `CN(c1ncccn1)N(Cc1ccc(C(F)(F)F)cn1)C(=O)c1ccc2nc(N)c(C3CC3)cc2c1` [Example 25, 2-amino-3-cyclopropyl-N'-methyl-N'-(pyrimidin-2-yl)-N-((5-(trifluoromethyl)pyridin-2-yl)methyl)quinoline-6-carbohydrazide], the IC50 is 2 nM on PRMT5-MTA, 110 nM in the experiment with HCT116 MTAP KO cells and 2820 nM with HCT116-WT cells. For the same compound, the “Selectivity HCT 116-WT/ HCT116 MTAP KO” value in the experiment on HCT116 MTAP KO cells was 25.64.
In the same order, the values of `Cc1cc2cc(C(=O)N(Cc3ccc(C(F)(F)F)cn3)N(C)c3cnccn3)ccc2nc1N` [Example 34, 2-amino-N',3-dimethyl-N'-(pyrazin-2-yl) -N-((5-(trifluoromethyl)pyridin-2-yl)methyl)quinoline-6-carbohydrazide] are 1.5 nM, 58 nM, 1270 nM and 21.90.
Turning to `Cc1cc2nc(N)c3cnn(C)c3c2cc1C(=O)N1CC2(CC2)CN1c1ncccc1F` [Example 366, (4-amino-1,7-dimethyl-1H-pyrazolo[4,3-c]quinolin-8-yl)(6-(3-fluoropyridin-2-yl)-5,6-diazaspiro[2.4]heptan-5-yl)methanone], the half-inhibitory concentration (IC50) turned out to be 7.9 nM at PRMT5-MTA, 7.7 nM in the experiment on HCT116 MTAP KO cells and 319 nM in the experiment on HCT116-WT cells. Besides, in the experiment with HCT116 MTAP KO cells, the “Selectivity HCT 116-WT/ HCT116 MTAP KO” value amounted to 41.43.
In the same order, the values of `Cc1cc2cc(C(=O)N(Cc3ccc(C(F)(F)F)cn3)N(C)c3ncc4cc[nH]c4n3)ccc2nc1N` [Example 119, 2-amino-N',3-dimethyl-N'-(7H-pyrrolo[2,3-d]pyrimidin-2-yl)-N-((5-(trifluoromethyl)pyridin-2-yl)methyl)quinoline-6-carbohydrazide] are 2.3 nM, 90 nM, 1810 nM and 20.13.
Turning to `[2H]C([2H])([2H])n1ncc2c(N)nc3cc(C)c(C(=O)N4CC(C)CN4c4ncccc4F)cc3c21` (stereo not shown) [Example 507, (4-amino-7-methyl-1-(methyl-D3)-1H-pyrazolo[4,3-c]quinolin-8-yl)(2-(3-fluoropyridin-2-yl)-4-methylpyrazolidin-1-yl)methanone], the results for the IC50 at PRMT5-MTA, in the experiment with HCT116 MTAP KO cells and with HCT116-WT cells were 10.3 nM, 38 nM and 1680 nM, respectively. Also, in the experiment with HCT116 MTAP KO cells, the “Selectivity HCT 116-WT/ HCT116 MTAP KO” value worked out at 44.34.
In the same order, the values of `Cc1cc2cc(C(=O)N(Cc3ccc(-c4ccoc4)cn3)N(C)c3ncccn3)ccc2nc1N` [Example 156, 2-amino-N-((5-(furan-3-yl)pyridin-2-yl)methyl)-N',3-dimethyl-N'-(pyrimidin-2-yl)quinoline-6-carbohydrazide] are 1.8 nM, 76 nM, 1540 nM and 20.26.
Taken in the same sequence, the figures for `Cn1ncc2c(N)nc3cc(Cl)c(C(=O)N4CC(F)(F)CN4c4ncccc4F)cc3c21` [Example 459, (4-amino-7-chloro-1-methyl-1H-pyrazolo [4,3-c]quinolin-8-yl)(4,4-difluoro-2-(3-fluoropyridin-2-yl)pyrazolidin-1-yl)methanone] were 4.7 nM, 30 nM, 408 nM and 13.60.
Taken in the same sequence, the figures for `Cc1cc2cc(C(=O)N(Cc3ncc(-c4cccnc4)cc3F)N(C)c3ncccn3)ccc2nc1N` [Example 222, 2-amino-N-((5-fluoro-[3,3'-bipyridine]-6-yl)methyl)-N',3-dimethyl-N'-(pyrimidin-2-yl)quinoline-6-carbohydrazide] were 1.4 nM, 20 nM, 328 nM and 16.40.
As for `CCN(C(=O)c1cc2c(cc1F)nc(N)c1cnn(C)c12)N(C)c1ccc(F)cn1` [Example 97, 4-amino-N-ethyl-7-fluoro-N'-(5-fluoropyridin-2-yl)-N',1-dimethyl-1H-pyrazolo[4,3-c]quinoline-8-carbohydrazide], the 50% inhibitory concentration (IC50) is 5.1 nM on PRMT5-MTA, 246 nM in the experiment with HCT116 MTAP KO cells and greater than 10000 nM with HCT116-WT cells.
For `Cn1ncc2c(N)nc3cc(Cl)c(C(=O)N4CC(OCC(F)(F)F)CN4c4ncccc4F)cc3c21` (stereo not shown) [Example 451, (4-amino-7-chloro-1-methyl-1H-pyrazolo[4,3-c]quinolin-8-yl)(2-(3-fluoropyridin-2-yl)-4-(2,2,2-trifluoroethoxy)pyrazolidin-1-yl)methanone], the IC50 at PRMT5-MTA was 7 nM; with HCT116 MTAP KO cells it was 40 nM; in the experiment on HCT116-WT cells, 1010 nM. For the same compound, the “Selectivity HCT 116-WT/ HCT116 MTAP KO” value in the experiment with HCT116 MTAP KO cells worked out at 25.30.
Consider `Cc1cc2nc(N)c3cnn(C)c3c2cc1C(=O)N1CC(C)CN1c1ccccn1` (stereo not shown) [Example 368, (4-amino-1,7-dimethyl-1H-pyrazolo[4,3-c]quinolin-8-yl)(4-methyl-2-(pyridin-2-yl)pyrazolidin-1-yl)methanone], for which the concentration for half-maximal inhibition (IC50) came to 4.7 nM at PRMT5-MTA, 37 nM in the experiment on HCT116 MTAP KO cells and 2900 nM with HCT116-WT cells. The “Selectivity HCT 116-WT/ HCT116 MTAP KO” value with HCT116 MTAP KO cells turned out to be 78.51.
In the same order, the values of `Cc1cc2cc(C(=O)N(Cc3ccc(Br)cn3)N(C)c3ncccc3C(F)(F)F)ccc2nc1N` [Example 60, 2-amino-N-((5-bromopyridin-2-yl)methyl)-N',3-dimethyl-N'-(3-(trifluoromethyl)pyridin-2-yl)quinoline-6-carbohydrazide] are 2.3 nM, 60 nM, 708 nM and 11.80.
Taken in the same sequence, the figures for `Cc1cc2cc(C(=O)N(Cc3ccc(C(C)(F)F)cn3)N(C)c3ncccn3)ccc2nc1N` [Example 291, 2-amino-N-((5-(1,1-difluoroethyl)pyridin-2-yl)methyl)-N',3-dimethyl-N'-(pyrimidin-2-yl)quinoline-6-carbohydrazide] were 3.9 nM, 39 nM, 1050 nM and 26.90.
In the same order, the values of `Cc1cc2cc(C(=O)N(Cc3cc4ccccc4cn3)N(C)c3ncccn3)ccc2nc1N` [Example 104, 2-amino-N-(isoquinolin-3-ylmethyl)-N',3-dimethyl-N'-(pyrimidin-2-yl)quinoline-6-carbohydrazide] are 3.4 nM, 67 nM, 1540 nM and 22.94.
`Cc1cc2cc(C(=O)N(Cc3ccc(-c4scnc4CF)cn3)N(C)c3ncccn3)ccc2nc1N` [Example 242, 2-amino-N-((5-(4-(fluoromethyl)thiazol-5-yl)pyridin-2-yl)methyl)-N',3-dimethyl-N'-(pyrimidin-2-yl)quinoline-6-carbohydrazide]: the IC50 came out at 5.9 nM at PRMT5-MTA, 8.4 nM in the experiment on HCT116 MTAP KO cells and 235 nM in the experiment with HCT116-WT cells. In addition, in the experiment on HCT116 MTAP KO cells, the “Selectivity HCT 116-WT/ HCT116 MTAP KO” value was found to be 27.98.
For the compound `Cc1cc2nc(N)c3cnn(C)c3c2cc1C(=O)N1CC(C)CN1c1cccc(C2CC2)n1` (stereo not shown) [Example 405, (4-amino-1,7-dimethyl-1H-pyrazolo[4,3-c]quinolin-8-yl)(2-(6-cyclopropylpyridin-2-yl) -4-methylpyrazolidin-1-yl)methanone], the IC50 on PRMT5-MTA turned out to be 12.3 nM; with HCT116 MTAP KO cells, 29 nM; in the experiment on HCT116-WT cells, 926 nM. The “Selectivity HCT 116-WT/ HCT116 MTAP KO” value in the experiment on HCT116 MTAP KO cells came to 31.93.
Taken in the same sequence, the figures for `Cc1cc2cc(C(=O)N(Cc3ccc(C(F)(F)F)cn3)Nc3ncccc3F)ccc2nc1N` [Example 56, 2-amino-N'-(3-fluoropyridin-2-yl)-3-met hyl-N-((5-(trifluoromethyl)pyridin-2-yl)methyl)quinoline-6-carbohydrazide] were 3.5 nM, 139 nM, 3330 nM and 23.99.
In the same order, the values of `Cc1cc2cc(C(=O)N(Cc3ccc(-c4nncs4)cn3)N(C)c3nccc4nccnc34)ccc2nc1N` [Example 232, N-((5-(1,3,4-thiadiazol-2-yl)pyridin-2-yl)methyl)-2-amino-N',3-dimethyl-N'-(pyrido[3,4-b]pyrazin-5-yl)quinoline-6-carbohy drazide] are 4.3 nM, 46 nM, 995 nM and 21.63.
